Source: PMC9246774, “Construction and Functional Evaluation of a Three-Dimensional Blood–Brain Barrier Model Equipped With Human Induced Pluripotent Stem Cell-Derived Brain Microvascular Endothelial Cells” (Pharmaceutical Research, 2022)

Experiments:
MCTs = experiment: Inhibition of H+-gradient-promoted [14C] L-lactate transport in the 3D-BBB system; assay type: cell-based, human; details: 20 nM AZD3965; one lane pH 6.0, opposite lane pH 7.4
Method: Permeability experiments were performed on day 10, at 48 h after seeding hiPS-BMECs on the plate. After removal of the medium in the capillary channels, the assay buffer (pH 7.4) was added to both sides of the capillary and brain channels and preincubated on the OrganoFlow® for 30 min. The assay buffer containing test drugs was added to the donor side to initiate the assay, and the plate was then incubated on the OrganoFlow® at 37°C for the designated times. Transporter inhibitors were added to both the donor and receiver sides at the start of preincubation. In all permeability experiments, the amount of lucifer yellow transported through the paracellular pathway to the receiver side was measured with a SpectraMax i3x (Molecular Devices, San Jose, CA) as a measure of cell-to-cell tightness. […] The apparent permeability coefficient (Papp) was calculated as follows: Papp=(dQ/dt)/D0×S
On day 10, remove the medium in the capillary lane of the 3D-BBB system. After removal, 100 µL of assay buffer (50 µL in each Well ➀, ②, ⑤ and ⑥) was added to the capillary and brain lane for washing. […] At 3.5 hr after the start of permeability experiment, the transport amount of lucifer yellow on the receiver side was measured to check for leakage, and all donor and receiver were collected at 4 hr.

[1] = Permeability experiments in the 3D-BBB system (hiPS-BMECs on OrganoPlate 3-lane); details: human
Method: (§1) The 3D-BBB system using the OrganoPlate® 3-lane plate was constructed with some modifications to the protocol published by MIMETAS. During the differentiation of hiPS-BMECs, to separate the capillary side from the brain side, extracellular matrix hydrogel composed of 4 mg/mL collagen I (Cultrex 3D Matrix Rat Collagen-I, 5 mg/mL, AMSbio), 100 mM HEPES, and 3.7 mg/mL NaHCO3 was dispensed into the middle lane. The plate was incubated at 37°C for 15 min to polymerize collagen I. After incubation, HBSS (+) without phenol red (Fujifilm Wako) was added to the gel channel to prevent the gel from drying out. […] The suspension was injected into capillary lanes precoated with fibronectin/collagen IV solution (PharmCo-Cell). After seeding the cells, the plate was incubated for 4 h at a tilt to allow the cells to adhere to the gel. After incubation, the medium was added to the capillary channels and the plate was placed on an OrganoFlow® (MIMETAS), switching between a + 7° and − 7° inclination every 8 min to create a bidirectional flow mimicking blood flow. On day 9, the medium in the capillary channels was replaced with fresh ESFM + 1% hPDS containing 10 μM MMP inhibitor.
(§2) Permeability experiments were performed on day 10, at 48 h after seeding hiPS-BMECs on the plate. […] The assay buffer containing test drugs was added to the donor side to initiate the assay, and the plate was then incubated on the OrganoFlow® at 37°C for the designated times. Transporter inhibitors were added to both the donor and receiver sides at the start of preincubation. In all permeability experiments, the amount of lucifer yellow transported through the paracellular pathway to the receiver side was measured with a SpectraMax i3x (Molecular Devices, San Jose, CA) as a measure of cell-to-cell tightness. The protocol for the permeability experiments, including the composition of the assay buffer, is described in detail in the Supplementary Material. The apparent permeability coefficient (Papp) was calculated as follows: Papp=(dQ/dt)/D0×S
(§3) where dQ/dt, D0, and S are the transport velocity of the test drugs, the initial concentration of test drugs on the donor side, and the surface area of the extracellular matrix hydrogel in the middle lane, respectively. The efflux ratio value was calculated from the Papp value in the capillary-to-brain (A-to-B) and brain-to-capillary (B-to-A) directions as follows: Effluxratio=Papp,B-to-A/Papp,A-to-B.
(§4) The test drugs were quantified using a high-performance liquid chromatography (HPLC)-tandem mass spectrometry system composed of a Nexera-XR (Shimazu, Kyoto, Japan) HPLC system connected to a Qtrap4500 (AB Sciex, Foster City, CA, USA) mass spectrometer with an electrospray ionization interface.
(§5) On day 10, remove the medium in the capillary lane of the 3D-BBB system. After removal, 100 µL of assay buffer (50 µL in each Well ➀, ②, ⑤ and ⑥) was added to the capillary and brain lane for washing. After 30 min for washing, 100 µL of a fresh assay buffer containing the drug was added to the donor side (A-to-B direction; 50 µL in each Well ➀ and ②, B-to-A direction; 50 µL in each Well ⑤ and ⑥). In addition, 100 µL of a fresh assay buffer was added to the receiver side (A-to-B direction; 50 µL in each Well ⑤ and ⑥, B-to-A direction; 50 µL in each Well ➀ and ②). Inhibitors were added on both sides of the donor and receiver to avoid a gradient in concentration. At the designed sampling time, 50 µL of assay buffer was collected from the receiver side (A-to-B direction; 25 µL in each Well ⑤ and ⑥, B-to-A direction; 25 µL in each Well ➀ and ②), and 50 µL of a fresh assay buffer was added.

[2] = Permeability in the hydrogel without hiPS-BMECs (OrganoPlate 3-lane); assay type: in vitro ADME; details: pH 7.4, upper limit of the system, data not shown
hiPS-BMECs [3] = experiment: Permeability experiments in the 3D-BBB system (hiPS-BMECs on OrganoPlate 3-lane)
Method: as §1, §2, §3, §4, §5

BCRP = experiment: as above; details: human, pH 7.4, with Ko143 1 µM (BCRP inhibitor), Efflux ratio (B-to-A/A-to-B), + 1 μM Ko143 (BCRP inhibitor)
Method: as §1, §2, §3, §4, §5

[4] = system: monkey in vitro BBB model; set-up: method as in PMID 34575559; details: cited from earlier work
human BBB = system: human BBB; set-up: method as in PMID 24947467; details: prediction for human BBB; cited from earlier work
hiPS-BMECs [5] = details: cited from earlier work
[6] = pH 7.4, Efflux ratio (B-to-A/A-to-B), Control

## Cc1[nH]nc(C(F)(F)F)c1Cc1sc2c(c1C(=O)N1C[C@](C)(O)CO1)c(=O)n(C)c(=O)n2C(C)C [AZD3965]
MCTs
  Reduction of [14C] L-lactate transport promoted by the H+-gradient: approximately 60%

## Cc1cc(=O)n(-c2ccccc2)n1C [Antipyrine]
[1]; pH 7.4
  Papp A→B at 4 h: 33.4 ×10⁻⁶ cm/s
  Papp B→A at 4 h: 35.1 ×10⁻⁶ cm/s
[1]; [6]
  efflux ratio at 4 h: 1.05
[2]
  Papp at 4 h: 59.2 ×10⁻⁶ cm/s

## Nc1nc(Cl)nc2c1ncn2[C@H]1C[C@H](O)[C@@H](CO)O1 [Cladribine]
hiPS-BMECs [3]; Control
  Efflux ratio (B-to-A/A-to-B): 5.61
[1]; pH 7.4
  Papp A→B at 4 h: 2.69 ×10⁻⁶ cm/s
  Papp B→A at 4 h: 15.1 ×10⁻⁶ cm/s
[1]; [6]
  efflux ratio at 4 h: 5.6
BCRP
  efflux ratio at 4 h: 1.45

## NCC1(CC(=O)O)CCCCC1 [Gabapentin]
[1]; pH 7.4
  Papp A→B at 4 h: 16 ×10⁻⁶ cm/s
  Papp B→A at 4 h: 6.4 ×10⁻⁶ cm/s
  efflux ratio at 4 h: 0.401

## C=C[C@H]1C[N@@]2CC[C@H]1C[C@@H]2[C@@H](O)c1ccnc2ccc(OC)cc12 [Quinidine]
[1]; pH 7.4
  Papp A→B at 4 h: 21.6 ×10⁻⁶ cm/s
  Papp B→A at 4 h: 22.8 ×10⁻⁶ cm/s
[1]; [6]
  efflux ratio at 4 h: 1.06
[4]
  Efflux ratio: approximately 1.7
Human BBB
  Efflux ratio: ~13.4

## NC(N)=NCCC[C@H](N)C(=O)O [[^3H] L-Arginine, Arginine, L-[2,3,4-^3H]]
hiPS-BMECs [3]; Control
  Efflux ratio (B-to-A/A-to-B): 0.410
hiPS-BMECs [3]; Control, brain-to-capillary, pH 7.4
  Papp B-to-A: 5.77 × 10^–6 cm/s
hiPS-BMECs [3]; Control, capillary-to-brain, pH 7.4
  Papp A-to-B: 14.1 × 10^–6 cm/s

## [14CH3][14CH](O)[14C](=O)[O-].[Na+] [[^14C] L-Lactate, Lactic acid sodium salt, L-[^14C(U)]]
hiPS-BMECs [3]; A: pH 6.0—B: pH 7.4
  Efflux ratio (B-to-A/A-to-B): 0.257
  Papp A-to-B: 34.1 × 10^–6 cm/s
  Papp B-to-A: 8.74 × 10^–6 cm/s
hiPS-BMECs [3]; A: pH 6.0—B: pH 7.4, + 20 nM AZD3965
  Papp A-to-B: 12.0 × 10^–6 cm/s
hiPS-BMECs [3]; A: pH 7.4—B: pH 6.0
  Efflux ratio (B-to-A/A-to-B): 3.07
  Papp A-to-B: 7.68 × 10^–6 cm/s
  Papp B-to-A: 23.6 × 10^–6 cm/s
hiPS-BMECs [3]; A: pH 7.4—B: pH 6.0, + 20 nM AZD3965
  Papp B-to-A: 9.60 × 10^–6 cm/s
hiPS-BMECs [3]; A: pH 7.4—B: pH 7.4
  Efflux ratio (B-to-A/A-to-B): 0.944
  Papp A-to-B: 19.1 × 10^–6 cm/s
  Papp B-to-A: 18.1 × 10^–6 cm/s

## lucifer yellow
hiPS-BMECs [3]
  Block of leakage by hiPS-BMECs: more than 99%
hiPS-BMECs [5]
  Papp in 2D culture of hiPS-BMECs: 0.0845 × 10^–6 cm/s
